Data set [1] addresses T1, Cathepsin K (Oryctolagus cuniculus) (UniProt P43236).
T1 sequence (whole entry): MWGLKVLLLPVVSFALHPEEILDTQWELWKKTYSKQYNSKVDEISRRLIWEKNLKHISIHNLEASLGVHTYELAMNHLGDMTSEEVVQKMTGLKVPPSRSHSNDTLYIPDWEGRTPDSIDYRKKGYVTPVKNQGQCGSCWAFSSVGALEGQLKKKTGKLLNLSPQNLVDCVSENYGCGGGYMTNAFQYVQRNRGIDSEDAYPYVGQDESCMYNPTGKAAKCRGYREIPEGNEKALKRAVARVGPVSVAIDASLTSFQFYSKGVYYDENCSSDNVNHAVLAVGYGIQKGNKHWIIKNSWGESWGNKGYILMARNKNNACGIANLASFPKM
The data set can be described thus: Apparent inhibitory constant against rabbit cathepsin K.

The target of data set [2] is Procathepsin L (Homo sapiens) (UniProt P07711).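 Further: apparent inhibition constant, determined on the human enzyme.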
Data set [3] deals with Cathepsin B (Homo sapiens) (UniProt P07858). Description: Apparent inhibitory constant against human cathepsin B.
Data set [4] has as its target Cathepsin S (Homo sapiens) (UniProt P25774). The data set can be described thus: Apparent inhibitory constant against human cathepsin S.
Data set [5] is described as follows: Clearance following intravenous administration evaluated as high. The following applies: in vivo. It is filed as ADME, organism-based.
Data set [6] is described as follows: Volume of distribution following intravenous administration evaluated as moderate. It is filed as ADME, organism-based. The following applies: in vivo.
Data set [7] is described as follows: Alpha half life period. The data set is classed as ADME.
Data set [8] in a line: Mean residence time by intravenous administration. It is filed as ADME, organism-based. Particulars: in vivo.
The nature of data set [9]: Beta half life period. It is filed as ADME.

Results on 14 compounds are retold here after ChEMBL document CHEMBL1141905, “3,4-disubstituted azetidinones as selective inhibitors of the cysteine protease cathepsin K. Exploring P3 elements for potency and selectivity” (Bioorg Med Chem Lett, 2005).

Procathepsin L (Homo sapiens), sequence (P07711 114-333 limits assumed): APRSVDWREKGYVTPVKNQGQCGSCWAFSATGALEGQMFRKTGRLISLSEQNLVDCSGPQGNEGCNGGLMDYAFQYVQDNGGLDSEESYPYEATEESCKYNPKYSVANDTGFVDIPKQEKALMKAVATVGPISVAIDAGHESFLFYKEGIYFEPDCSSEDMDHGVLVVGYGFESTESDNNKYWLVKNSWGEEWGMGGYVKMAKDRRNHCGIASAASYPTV
Cathepsin S (Homo sapiens), sequence (P25774 115-331 limits assumed): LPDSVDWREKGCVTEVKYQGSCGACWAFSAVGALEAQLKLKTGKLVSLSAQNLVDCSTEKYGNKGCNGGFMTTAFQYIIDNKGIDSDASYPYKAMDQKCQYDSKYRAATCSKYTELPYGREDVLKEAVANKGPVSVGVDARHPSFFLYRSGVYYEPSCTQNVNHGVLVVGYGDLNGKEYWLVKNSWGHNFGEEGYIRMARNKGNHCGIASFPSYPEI

Regarding `CC(=O)O[C@@H]1NC(=O)[C@H]1NC(=O)C1(NC(=O)c2ccc(N(C)C)cc2)CCCCC1`, the Ki'' in [1] came to 0.0031 µM; in data set [2] it was 2.1 µM; in [3], 0.53 µM; in data set [4] it was 2.8 µM.
In the case of `CN(C)c1nc(-c2ccc(C(=O)NC3(C(=O)N[C@@H]4C(=O)N[C@H]4Oc4ccccc4)CCCCC3)cc2)cs1`, the Ki'' in data set [1] was 0.018 µM; in data set [2], 0.089 µM; in data set [3], 25 µM; in data set [4], 10 µM.
Regarding `CSc1ccc(C(=O)NC2(C(=O)N[C@@H]3C(=O)N[C@H]3OC(C)=O)CCCCC2)cc1`, the Ki'' worked out at 0.012 µM in [1], 6.4 µM in data set [2], 1.2 µM in [3] and 3.5 µM in [4].
In the case of `CC(=O)O[C@@H]1NC(=O)[C@H]1NC(=O)C1(NC(=O)c2ccc(-c3csc(CN4CCOCC4)n3)cc2)CCCCC1`, the Ki'' in data set [1] turned out to be 0.0075 µM; in [2], 11 µM; in data set [3], 1.7 µM; in data set [4], 12 µM.
As to `CC(=O)O[C@@H]1NC(=O)[C@H]1NC(=O)C1(NC(=O)OCc2ccccc2)CCCCC1`, the Ki'' in data set [1] was 0.057 µM; in data set [2], 6.8 µM; in data set [3], 4.3 µM; in [4], 0.95 µM.
For `CN1CCN(Nc2nc(-c3ccc(C(=O)NC4(C(=O)N[C@@H]5C(=O)N[C@@H]5Oc5ccccc5)CCCCC4)cc3)cs2)CC1` the same measures were 0.0082 µM, 0.0082 µM, 5.2 µM and 150 µM.
`CC(=O)O[C@@H]1NC(=O)[C@H]1NC(=O)C1(NC(=O)c2ccc(N3CCN(C)CC3)cc2)CCCCC1`: the Ki'' was 0.0011 µM in [1], 1.4 µM in [2], 0.49 µM in [3] and 8.8 µM in data set [4].
Consider `CC(=O)O[C@@H]1NC(=O)[C@H]1NC(=O)C1(NC(=O)c2ccc(N3CCOCC3)cc2)CCCCC1`, for which the Ki'' in data set [1] came to 0.005 µM; in data set [2], 19 µM; in data set [3] it was 0.98 µM; in data set [4], 14 µM.
`CN1CCN(c2nc(-c3ccc(C(=O)NC4(C(=O)N[C@@H]5C(=O)N[C@@H]5Oc5ccccc5)CCCCC4)cc3)cs2)CC1`: the clearance in [5] stood at 92 mL/min/kg. Besides, the Vd in data set [6] is 1.6 L/kg. Further, the half-life in data set [7] came out at 2 min; in data set [9], 21 min. Also, the MRT in data set [8] is 17 min.
For `CC(=O)O[C@@H]1NC(=O)[C@H]1NC(=O)C1(NC(=O)c2ccc(-c3csc(NN4CCN(C)CC4)n3)cc2)CCCCC1`, the Ki'' in data set [1] was 0.00025 µM; in data set [2], 2.1 µM; in [3] it was 0.091 µM; in data set [4], 8.8 µM.
On the same counts, the results for `CC(=O)O[C@@H]1NC(=O)[C@H]1NC(=O)C1(NC(=O)c2ccc(-c3csc(N(C)C)n3)cc2)CCCCC1` are 0.0026 µM, 0.39 µM, 1.4 µM and 7.7 µM.
Regarding `CC(=O)O[C@@H]1NC(=O)[C@H]1NC(=O)C1(NC(=O)c2ccc(-c3csc(N4CCN(C)CC4)n3)cc2)CCCCC1`, the Ki'' in data set [1] was 0.0011 µM; in data set [2], 3.3 µM; in [3], 0.94 µM; in data set [4], 8.5 µM.
On to `CN1CCN(Nc2nc(-c3ccc(C(=O)NC4(C(=O)N[C@@H]5C(=O)N[C@H]5Oc5ccccc5)CCCCC4)cc3)cs2)CC1`, for which the Ki'' was determined as 0.00026 µM in data set [1], 0.31 µM in data set [2], 6 µM in data set [3] and 140 µM in data set [4].
As for `CC(=O)O[C@@H]1NC(=O)[C@H]1NC(=O)C1(NC(=O)c2ccc(Cl)cc2)CCCCC1`, the Ki'' in data set [1] worked out at 0.092 µM; in [2] it was 8.2 µM; in [3], 2.1 µM; in data set [4], 3.4 µM.

By clearance is commonly meant the rate of elimination divided by the concentration. The low end stands for inefficient removal, the high end for efficient removal. As usually defined, the Vd is a proportionality between amount in the body and measured concentration, not a real space. The term half-life denotes the time needed for the level to fall by half in the phase considered. High values mean slow decline, low ones rapid decline. Broadly, the MRT is a mean duration of stay, worked out from the concentration-time curve.
